Consider 28 molecules from ChEMBL document CHEMBL2010687 (Bioorg Med Chem Lett, 2012).

The target of series [1] is T1, Growth hormone secretagogue receptor type 1 (Homo sapiens, UniProt Q92847). The series is described as follows: Antagonist activity at human GHSR1a receptor assessed as intracellular Ca2+ concentration by aequorin luminescent assay. It counts as functional, cell-based.
Series [2] in a line: Metabolic stability in human liver S9 fraction assessed as compound remaining after 1 hr. It counts as ADME, subcellular. As to conditions: read-out: Stability.
The nature of series [3]: Metabolic stability in rat liver S9 fraction assessed as compound remaining after 1 hr. As to conditions: read-out: Stability. It counts as ADME, subcellular.
Series [4] concerns the target T1, Growth hormone secretagogue receptor type 1. The series is described as follows: Displacement of [125I]Ghrelin from human GHSR1a receptor. For orientation: Loss of bound radioactivity is the signal in a displacement assay; it reports binding, not function.
Series [5] concerns the target Growth hormone secretagogue receptor type 1 (Mus musculus, UniProt Q99P50). The series is described as follows: Antagonist activity at mouse GHSR1 receptor assessed as intracellular Ca2+ concentration by aequorin luminescent assay. It counts as functional, cell-based.
Series [6] can be described thus: AUC in Sprague-Dawley rat at 2 mg/kg, po. It counts as ADME, organism-based. Also noted: dose 2 mg/kg, route oral. The note with it: plasma.
The nature of series [7]: Oral bioavailability in Sprague-Dawley rat at 2 mg/kg. It counts as ADME, organism-based. As to conditions: in vivo.
The nature of series [8]: Clearance in Sprague-Dawley rat at 2 mg/kg, po. It counts as ADME, organism-based. Also noted: dose 2 mg/kg, route oral. As to conditions: in vivo.

T1 sequence (Q92847 whole entry): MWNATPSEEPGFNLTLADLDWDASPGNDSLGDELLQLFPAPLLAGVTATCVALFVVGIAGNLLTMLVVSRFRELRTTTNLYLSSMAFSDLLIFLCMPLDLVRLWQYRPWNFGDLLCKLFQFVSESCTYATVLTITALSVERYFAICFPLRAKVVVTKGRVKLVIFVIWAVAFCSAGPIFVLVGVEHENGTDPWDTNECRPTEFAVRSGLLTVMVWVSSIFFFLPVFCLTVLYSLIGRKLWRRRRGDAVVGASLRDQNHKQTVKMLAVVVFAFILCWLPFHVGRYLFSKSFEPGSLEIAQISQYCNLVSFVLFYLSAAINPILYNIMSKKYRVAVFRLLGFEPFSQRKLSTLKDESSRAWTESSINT
Chain of Growth hormone secretagogue receptor type 1 (Mus musculus, UniProt Q99P50) (Q99P50 whole entry): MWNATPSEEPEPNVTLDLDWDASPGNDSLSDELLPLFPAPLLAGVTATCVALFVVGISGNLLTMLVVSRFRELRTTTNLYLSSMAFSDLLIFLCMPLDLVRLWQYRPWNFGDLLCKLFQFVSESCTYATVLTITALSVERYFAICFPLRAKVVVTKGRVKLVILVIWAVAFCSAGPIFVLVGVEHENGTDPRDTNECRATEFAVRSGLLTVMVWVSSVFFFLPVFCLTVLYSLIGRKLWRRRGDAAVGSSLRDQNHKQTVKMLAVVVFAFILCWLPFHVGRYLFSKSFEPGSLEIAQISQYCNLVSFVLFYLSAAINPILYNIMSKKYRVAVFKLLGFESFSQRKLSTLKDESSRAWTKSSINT

On to `CC(C)[C@H](C(=O)NC1CCN(Cc2ccccc2)CC1)N1CC(=O)Nc2ccc(Oc3ccc(F)cc3)cc2C1=O`, for which, in series [1], the IC50 (as a rule, the concentration that gives 50% inhibition) came out at 11 nM.

Consider `Cc1ccc(Oc2ccc3c(c2)C(=O)N([C@@H](C(=O)NC2CCN(Cc4ccccc4)CC2)C(C)C)CC(=O)N3)cc1`, for which, in series [1], the IC50 came out at 7 nM.

Take `CC(C)[C@H](C(=O)N1CCC(NCc2ccccc2)CC1)N1CC(=O)Nc2ccc(Oc3ccc(F)cc3F)cc2C1=O`: the half-inhibitory concentration (IC50) in series [1] worked out at 0.3 nM. In addition, the remaining at 1 h in series [2] turned out to be 70%; in series [3], 65%.

With `CC(C)[C@H](C[C@H]1CC[C@@H](NCC2CC2)CC1)N1CC(=O)Nc2ccc(Oc3ccc(F)cc3F)cc2C1=O`, the IC50 in series [1] stood at 20 nM. Besides, the remaining at 1 h in series [2] was 68%; in series [3] it was 27%.

`CC(C)[C@H](C(=O)N1CCC(N[C@H](C)C2CCCCC2)CC1)N1CC(=O)Nc2ccc(Oc3ccccc3)cc2C1=O`: the IC50 in series [1] amounted to 2.5 nM. Also, the remaining at 1 h in series [2] amounted to 30%; in series [3] it was 28%.

For `CC(C)[C@H](C(=O)NC1CCN(C(=O)c2ccccc2)CC1)N1CC(=O)Nc2ccc(Oc3ccccc3)cc2C1=O`, in series [1], the concentration for half-maximal inhibition (IC50) was > 10000 nM.

For `CC(C)[C@H](C(=O)NC1CCC(Cc2ccccc2)CC1)N1CC(=O)Nc2ccc(Oc3ccccc3)cc2C1=O` (stereo not given in full), the half-maximal inhibitory concentration (IC50) in series [1] is > 10000 nM. The remaining at 1 h in series [2] was 23%; in series [3], 95%.

Take `CC(C)[C@H](C(=O)N1CCC(NC(C)(C)c2ccccc2)CC1)N1CC(=O)Nc2ccc(Oc3ccccc3)cc2C1=O`: in series [1], the IC50 stood at 16.5 nM. Besides, the remaining at 1 h in series [2] turned out to be 19%; in series [3], 48%.

Regarding `COc1ccc(Oc2ccc3c(c2)C(=O)N([C@@H](C(=O)NC2CCN(Cc4ccccc4)CC2)C(C)C)CC(=O)N3)cc1`, in series [1], the half-inhibitory concentration (IC50) was 79 nM.

For the molecule `O=C1CN([C@@H](C(=O)NC2CCN(Cc3ccccc3)CC2)C2CC2)C(=O)c2cc(Oc3ccccc3)ccc2N1`, the half-inhibitory concentration (IC50) in series [1] came out at 12 nM.

As for `CC(C)[C@H](C(=O)NC1CCNCC1)N1CC(=O)Nc2ccc(Oc3ccccc3)cc2C1=O`, in series [1], the concentration for half-maximal inhibition (IC50) is > 10000 nM.

For `COc1cccc(Oc2ccc3c(c2)C(=O)N([C@@H](C(=O)NC2CCN(Cc4ccccc4)CC2)C(C)C)CC(=O)N3)c1`, the IC50 in series [1] is 143 nM. For the same molecule, the remaining at 1 h in series [2] was determined as 22%; in series [3], 10%.

Take `CC(C)[C@H](C(=O)N1CCC(NCc2ccccc2)CC1)N1CC(=O)Nc2ccc(Oc3ccccc3)cc2C1=O`: the half-inhibitory concentration (IC50) in series [1] turned out to be 8 nM. Further, the remaining at 1 h was 62% in series [2] and 72% in series [3].

`CC(C)[C@H](C(=O)NC1CCN(Cc2ccccc2)CC1)N1CC(=O)Nc2ccc(Oc3ccc(Cl)cc3)cc2C1=O`: in series [1], the IC50 turned out to be 28 nM.

For `Cc1ccccc1Oc1ccc2c(c1)C(=O)N([C@@H](C(=O)NC1CCN(Cc3ccccc3)CC1)C(C)C)CC(=O)N2`, in series [1], the 50% inhibitory concentration (IC50) turned out to be 3 nM. Moreover, the values for the remaining at 1 h in series [2] and in series [3] were 5% and 3%, respectively.

Regarding `CC(C)[C@H](C(=O)N1CCC(N[C@H](C)c2ccccc2)CC1)N1CC(=O)Nc2ccc(Oc3ccccc3)cc2C1=O`, in series [1], the half-maximal inhibitory concentration (IC50) came out at 2.5 nM. For the same molecule, the remaining at 1 h in series [2] turned out to be 27%; in series [3], 46%.

`CC(C)[C@H](C(=O)N1CCC(NCCC2CCOCC2)CC1)N1CC(=O)Nc2ccc(Oc3ccccc3)cc2C1=O`: the half-maximal inhibitory concentration (IC50) in series [1] stood at 313 nM.

For the molecule `CC(C)[C@@H](C(=O)NC1CCN(Cc2ccccc2)CC1)N1CC(=O)Nc2ccc(Oc3ccccc3)cc2C1=O`, the IC50 in series [1] is 196 nM.

In the case of `CC(C)[C@H](C[C@H]1CC[C@@H](NCc2ccccc2)CC1)N1CC(=O)Nc2ccc(Oc3ccccc3)cc2C1=O`, the IC50 in series [1] came to 6 nM.

For the molecule `Cc1cccc(C)c1Oc1ccc2c(c1)C(=O)N([C@@H](C(=O)NC1CCN(Cc3ccccc3)CC1)C(C)C)CC(=O)N2`, in series [1], the half-inhibitory concentration (IC50) was 1 nM.

With `Cc1cc(F)ccc1Oc1ccc2c(c1)C(=O)N([C@@H](C(=O)NC1CCN(Cc3ccccc3)CC1)C(C)C)CC(=O)N2`, the 50% inhibitory concentration (IC50) in series [1] was determined as 0.2 nM. The figures for the remaining at 1 h in series [2] and in series [3] were 5% and 3%, respectively.

Turning to `CC(C)[C@H](C(=O)NC1CCN(Cc2ccccc2)CC1)N1CC(=O)Nc2ccc(Oc3ccccc3)cc2C1=O`, the Ki (in general, the dissociation constant of the complex between target and ligand, obtained from inhibition or displacement) in series [4] was found to be 4.4 nM. Moreover, the figures for the concentration for half-maximal inhibition (IC50) in series [5] and in series [1] were 7 nM and 8 nM, respectively. Besides, in series [6], the AUC – broadly, concentration integrated over time – came to 132 ng·h/mL. Moreover, the bioavailability – broadly, the share of a dose that reaches the circulation, judged against a reference dose that is usually intravenous – in series [7] amounted to 6%. Besides, the apparent clearance (CL/F) (as a rule, clearance divided by bioavailability, as obtained after extravascular dosing) in series [8] is 143 mL/min/kg. Also, the results for the remaining at 1 h in series [2] and in series [3] were 30% and 19%, respectively.

For `CC(C)[C@H](C(=O)NC1CCN(Cc2ccccc2)CC1)N1CC(=O)Nc2ccc(Oc3cccc(Cl)c3)cc2C1=O`, the half-inhibitory concentration (IC50) in series [1] was 171 nM.

For `CC(C)[C@H](C(=O)N1CCC(NCCC2CCCCC2)CC1)N1CC(=O)Nc2ccc(Oc3ccccc3)cc2C1=O`, the 50% inhibitory concentration (IC50) in series [1] turned out to be 4.1 nM. Also, in series [2], the remaining at 1 h was 76%.

For `O=C1CN(CC(=O)NC2CCN(Cc3ccccc3)CC2)C(=O)c2cc(Oc3ccccc3)ccc2N1`, in series [1], the IC50 was 314 nM.

As to `COc1ccccc1Oc1ccc2c(c1)C(=O)N([C@@H](C(=O)NC1CCN(Cc3ccccc3)CC1)C(C)C)CC(=O)N2`, the IC50 in series [1] was 26 nM. Besides, the remaining at 1 h in series [2] amounted to 26%; in series [3], 19%.

In series [6], `CC(C)[C@H](C[C@H]1CC[C@@H](NCC2CC2)CC1)N1CCCc2ccc(Oc3ccc(F)cc3F)cc2C1=O` had an AUC of 618 ng·h/mL. Also, the bioavailability in series [7] amounted to 39%. Also, in series [1], the IC50 is 2 nM. Also, the apparent clearance (CL/F) in series [8] was 10 mL/min/kg. In addition, the remaining at 1 h in series [2] amounted to 92%; in series [3], 97%.

On to `CC(C)[C@H](C(=O)N1CCC(NCC2CC2)CC1)N1CC(=O)Nc2ccc(Oc3ccccc3)cc2C1=O`, for which the 50% inhibitory concentration (IC50) in series [1] came to 50 nM. Moreover, the remaining at 1 h in series [2] amounted to 86%; in series [3] it was 71%.
